Reference: PMC5298005 (Clinical Pharmacology in Drug Development, 2016)
Where two headings read alike, the source gives them in different places. Marks after values point to notes of the source that are not given here.

Tests used:
[1] = Phase 1 drug-interaction study, tacrolimus with isavuconazole: pharmacokinetics; type: in vivo, human (healthy subjects)
[2] = type: in vivo, human (healthy subjects)
[3] = cited from earlier work
[4] = Phase 1 drug-interaction study, sirolimus with isavuconazole: pharmacokinetics; type: in vivo, human (healthy subjects)
[5] = Phase 1 drug-interaction study, prednisone with isavuconazole: pharmacokinetics
[6] = Treatment-emergent adverse events, cyclosporine study; type: in vivo, human (healthy subjects); details: TEAE during isavuconazole‐only administration
[7] = test system: CYP3A4; details: human liver microsomes expressing CYP3A4 in vitro; ref data on file; cited from earlier work
[8] = both, human, whole blood, po, 5 mg
[9] = tacrolimus 5 mg single oral dose
[10] = tacrolimus + isavuconazole vs tacrolimus alone
[11] = MMF + isavuconazole vs MMF alone
[12] = MPA after MMF 1 g single oral dose
[13] = MPAG after MMF 1 g single oral dose
[14] = both, human, whole blood, po, 2 mg
[15] = sirolimus 2 mg single oral dose
[16] = both, human, in vivo, po, 20 mg
[17] = prednisolone after prednisone 20 mg single oral dose
[18] = prednisone + isavuconazole vs prednisone alone
[19] = both, human, plasma, oral, 200 mg
[20] = isavuconazole + sirolimus vs isavuconazole alone
[21] = isavuconazole + tacrolimus vs isavuconazole alone
[22] = isavuconazole + cyclosporine vs isavuconazole alone
[23] = isavuconazole + MMF vs isavuconazole alone

Structure (SMILES): C=CC[C@@H]1/C=C(\C)C[C@H](C)C[C@H](OC)[C@H]2O[C@@](O)(C(=O)C(=O)N3CCCC[C@H]3C(=O)O[C@H](/C(C)=C/[C@@H]3CC[C@@H](O)[C@H](OC)C3)[C@H](C)[C@@H](O)CC1=O)[C@H](C)C[C@@H]2OC [Tacrolimus, tacrolimus]
- AUC(0-inf) [1, 8]: 313 ng·h/mL
- AUC(0-t) [1, 8]: 304 ng·h/mL
- Cmax [1, 8]: 26.7 ng/mL
- Mean AUC0–∞ higher in the presence vs absence of isavuconazole [1, 9]: 125%
- Mean AUClast higher in the presence vs absence of isavuconazole [1, 9]: 127%
- Mean Cmax higher in the presence vs absence of isavuconazole [1, 9]: 42%
- AUC0–∞, Geometric Least‐Squares Mean Ratio, % (90%CI) [1, 10]: 225 (191, 266) %
- AUClast, Geometric Least‐Squares Mean Ratio, % (90%CI) [1, 10]: 227 (192, 268) %
- Cmax, Geometric Least‐Squares Mean Ratio, % (90%CI) [1, 10]: 142 (122, 164) %

Structure (SMILES): COc1c(C)c2c(c(O)c1C/C=C(\C)CCC(=O)O)C(=O)OC2 [Mycophenolic Acid, mycophenolic acid]
- CL/F ([2]; MMF 1 g single oral dose alone, plasma, n = 24, arithmetic mean (SD)): 11.5 (3.4) L/h
- AUC0–∞, Geometric Least‐Squares Mean Ratio, % (90%CI) [2, 11]: 135 (127, 145) %
- AUClast, Geometric Least‐Squares Mean Ratio, % (90%CI) [2, 11]: 132 (124, 141) %
- Cmax, Geometric Least‐Squares Mean Ratio, % (90%CI) [2, 11]: 89 (76, 103) %
- Cmax lower in the presence vs absence of isavuconazole [2, 12]: 11%
- Mean AUC0–∞ higher in the presence vs absence of isavuconazole [2, 12]: 35%
- Mean AUClast higher in the presence vs absence of isavuconazole [2, 12]: 32%
- Tmax ([2]; both, human, plasma, po, 1 g): 0.5 h
- half-life ([2]; both, human, plasma, po, 1 g): 12.6 h

Structure (SMILES): CC[C@@H]([C@H](C)O)n1ncn(-c2ccc(N3CCN(c4ccc(OC[C@@H]5CO[C@@](Cn6cncn6)(c6ccc(F)cc6F)C5)cc4)CC3)cc2)c1=O [Posaconazole, posaconazole]
- Fold increase in area under the plasma concentration‐time curve of sirolimus ([3]; sirolimus coadministered with posaconazole): ↑ 7.9 ^a ^,14 fold
- Fold increase in area under the plasma concentration‐time curve of tacrolimus ([3]; tacrolimus coadministered with posaconazole): ↑ 3.6 ^a ^,14 fold

Structure (SMILES): CCC(C)n1ncn(-c2ccc(N3CCN(c4ccc(OCC5COC(Cn6cncn6)(c6ccc(Cl)cc6Cl)O5)cc4)CC3)cc2)c1=O (stereo not drawn) [Itraconazole, itraconazole]
- Fold increase in trough concentrations of cyclosporine ([3]; cyclosporine coadministered with itraconazole): ↑ 2.7 ^b ^,13 fold
- Fold increase in trough concentrations of tacrolimus ([3]; tacrolimus coadministered with itraconazole): ↑ 5.6 ^b ^,13 fold

Structure (SMILES): COc1c(C)c2c(c(O[C@@H]3O[C@H](C(=O)O)[C@@H](O)[C@H](O)[C@H]3O)c1C/C=C(\C)CCC(=O)O)C(=O)OC2 [MPAG, mycophenolic acid phenyl glucuronide]
- AUC0–∞ lower in the presence vs absence of isavuconazole [2, 13]: 24%
- AUClast lower in the presence vs absence of isavuconazole [2, 13]: 27%
- Cmax lower in the presence vs absence of isavuconazole [2, 13]: 32%

Structure (SMILES): CO[C@H]1C[C@@H]2CC[C@@H](C)[C@@](O)(O2)C(=O)C(=O)N2CCCC[C@H]2C(=O)O[C@H]([C@H](C)C[C@@H]2CC[C@@H](O)[C@H](OC)C2)CC(=O)[C@H](C)/C=C(\C)[C@@H](O)[C@@H](OC)C(=O)[C@H](C)C[C@H](C)/C=C/C=C/C=C/1C [Sirolimus, sirolimus]
- AUC(0-inf) [4, 14]: 196 ng·h/mL
- AUC(0-t) [4, 14]: 152 ng·h/mL
- Cmax [4, 14]: 5.1 ng/mL
- half-life [4, 14]: 74.8 h
- Mean AUC0–∞ higher in the presence vs absence of isavuconazole [4, 15]: 84%
- Mean AUClast higher in the presence vs absence of isavuconazole [4, 15]: 108%
- Mean Cmax higher in the presence vs absence of isavuconazole [4, 15]: 65%

Structure (SMILES): C[C@@H](c1ncncc1F)[C@](O)(Cn1cncn1)c1ccc(F)cc1F [Voriconazole, voriconazole]
- Fold increase in area under the plasma concentration‐time curve of cyclosporine ([3]; cyclosporine coadministered with voriconazole): ↑ 1.7 ^a ^,7 fold
- Fold increase in area under the plasma concentration‐time curve of sirolimus ([3]; sirolimus coadministered with voriconazole): ↑ 11 ^a ^,7 fold
- Fold increase in area under the plasma concentration‐time curve of tacrolimus ([3]; tacrolimus coadministered with voriconazole): ↑ 3 ^a ^,7 fold
- effect of coadministration on MPA AUC ([3]; voriconazole coadministration, ref VFEND package insert): no significant effect

Structure (SMILES): C[C@]12C=CC(=O)C=C1CC[C@@H]1[C@@H]2[C@@H](O)C[C@@]2(C)[C@H]1CC[C@]2(O)C(=O)CO [Prednisolone, prednisolone]
- AUC(0-inf) [5, 16]: 1650 ng·h/mL
- AUC(0-t) [5, 16]: 1640 ng·h/mL
- Cmax [5, 16]: 295 ng/mL
- Tmax [5, 16]: 1.5 h
- half-life [5, 16]: 2.9 h
- Cmax lower in the presence vs absence of isavuconazole [5, 17]: 4%
- Mean AUC0–∞ higher in the presence vs absence of isavuconazole [5, 17]: 8%
- Mean AUClast higher in the presence vs absence of isavuconazole [5, 17]: 8%
- AUC0–∞, Geometric Least‐Squares Mean Ratio, % (90%CI) [5, 18]: 108 (102, 114) %
- AUClast, Geometric Least‐Squares Mean Ratio, % (90%CI) [5, 18]: 108 (102, 114) %
- Cmax, Geometric Least‐Squares Mean Ratio, % (90%CI) [5, 18]: 96 (90, 102) %

Structure (SMILES): C[C@@H](c1nc(-c2ccc(C#N)cc2)cs1)[C@](O)(Cn1cncn1)c1cc(F)ccc1F [Isavuconazole, isavuconazole]
- AUC [4, 19]: 92000 ng·h/mL
- Tmax [4, 19]: 2 h
- mean AUCτ of isavuconazole higher in the presence of sirolimus ([4]; in vivo): 11%
- mean Cmax of isavuconazole higher in the presence of sirolimus ([4]; in vivo): 4%
- AUCτ, Geometric Least‐Squares Mean, % (90%CI) [4, 20]: 111 (109, 114) %
- Cmax, Geometric Least‐Squares Mean, % (90%CI) [4, 20]: 104 (100, 108) %
- AUC ([5]; both, human, in vivo, 200 mg): 88200 ng·h/mL
- Cmax ([5]; both, human, in vivo, 200 mg): 5600 ng/mL
- Tmax ([5]; both, human, in vivo, 200 mg): 2 h
- blood creatinine ([6]; 1 subject, day 15, 0.9 mg/dL on day –1): 1.4 mg/dL
- blood creatinine ([6]; second subject, by day 14, baseline 1.3 mg/dL): 1.4 mg/dL
- AUC [1, 19]: 89800 ng·h/mL
- Cmax [1, 19]: 4900 ng/mL
- mean AUCτ of isavuconazole higher in the presence of tacrolimus ([1]; in vivo): 12%
- mean Cmax of isavuconazole higher in the presence of tacrolimus ([1]; in vivo): 26%
- AUCτ, Geometric Least‐Squares Mean, % (90%CI) [1, 21]: 112 (110, 115) %
- Cmax, Geometric Least‐Squares Mean, % (90%CI) [1, 21]: 126 (118, 134) %
- AUC (both, human, in vivo, 200 mg): 108000 ng·h/mL
- Cmax (both, human, in vivo, 200 mg): 5700 ng/mL
- AUCτ, Geometric Least‐Squares Mean, % (90%CI) [22]: 103 (100, 106) %
- Cmax, Geometric Least‐Squares Mean, % (90%CI) [22]: 130 (121, 139) %
- isavuconazole metabolized [7]: 66.2%
- AUCτ ([2]; MMF study, isavuconazole 200 mg QD alone, plasma, n = 22, arithmetic mean (SD)): 101.4 (37.6) μg·h/mL
- Cmax [2, 19]: 6500 ng/mL
- change of mean AUCτ of isavuconazole by coadministration with MMF ([2]; in vivo): unchanged
- mean Cmax of isavuconazole increased by coadministration with MMF ([2]; in vivo): 4%
- AUCτ, Geometric Least‐Squares Mean, % (90%CI) [2, 23]: 101 (98, 103) %
- Cmax, Geometric Least‐Squares Mean, % (90%CI) [2, 23]: 104 (100, 107) %
